A word on the Ki: it is a dissociation constant, usually derived from enzyme kinetics or from competition with a known ligand. Low readings indicate higher affinity, high ones lower affinity.

Consider eight compounds from patent publication US5859061A, “Bis-sulfonamides hydroxamic acids as MMP inhibitors” (Pharmacia & Upjohn Company, priority 1998, dated 1999).

Holding throughout (assay type): biochemical
Holding throughout (conditions): in vitro, pH 7.5, room temperature, 15 min preincubation, substrate 1-3 hours

The target in one assay is stromelysin (Homo sapiens, UniProt P08254). Briefly: particle concentration fluorescence assay, inhibition of stromelysin. The method, then: (§1) Inhibitory activity is evaluated in one or more of the MMP enzymes (stromelysin, gelatinase, and collagenase) in vitro using particle concentration fluorescence assay. An inhibitor binds to MMP enzymes which prevents the degradation of a substrate by stromelysin, gelatinase, or collagenase. The substrate has attached to it a fluorescein and a biotin moiety. The intact substrate then binds to an avidin-coated particle via the biotin moiety. Once the particle is washed and dried, a fluorescent signal is generated since the fluorescent group is attached to the particle. Without an inhibitor present, the substrate is degraded by MMP enzymes and the fluorescein group is removed, therefore, no fluorescent signal can be detected. Testing compounds are dissolved in DMSO to the desired concentration, then the solutions are diluted to 1:5 with MMP buffer (50 mM Tris-HCl, pH 7.5; 150 mM NaCl; 0.02% NaN3). Serial two-fold dilutions of each compound are prepared. A concentrated, activated enzyme solution is transferred into each plate of the testing compounds, and the mixture is incubated at room temperature for 15 minutes. Thawed MMP substrate is then added into all plates, and the plates are incubated in the dark for 1-3 hours at room temperature. At this point, the substrate mixture is mixed with 0.1% avidin-coated polystyrene particles. After 15 minutes, the fluorescence values are measured following filtration and washing of the beads. Ki values are then calculated.

A further assay has as its target collagenase. Briefly: particle concentration fluorescence assay, inhibition of collagenase. The method, then: as §1
For a further assay, the target named is gelatinase. Briefly: particle concentration fluorescence assay, inhibition of gelatinase. The method, then: as §1

stromelysin, sequence (P08254 100-477): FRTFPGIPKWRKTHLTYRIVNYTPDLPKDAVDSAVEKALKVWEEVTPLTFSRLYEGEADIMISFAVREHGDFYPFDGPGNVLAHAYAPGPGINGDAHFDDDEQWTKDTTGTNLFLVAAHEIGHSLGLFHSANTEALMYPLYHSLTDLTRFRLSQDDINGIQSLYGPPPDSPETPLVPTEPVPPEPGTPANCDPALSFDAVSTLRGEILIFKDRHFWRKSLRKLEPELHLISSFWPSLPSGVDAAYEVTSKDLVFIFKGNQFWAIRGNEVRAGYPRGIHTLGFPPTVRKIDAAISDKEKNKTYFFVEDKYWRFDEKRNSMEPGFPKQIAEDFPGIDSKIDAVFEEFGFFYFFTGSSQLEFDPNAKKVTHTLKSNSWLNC

On to `O=C(NO)[C@H](CCNS(=O)(=O)c1ccccc1)NS(=O)(=O)c1ccccc1` [Example 6, (S)-N-Hydroxy-2,4-bis-[[phenylsulfonyl]amino] butanamide], for which the Ki on stromelysin was found to be 2 µM; at collagenase it was 3 µM; on gelatinase it was 0.284 µM.

Consider `Cc1ccc(S(=O)(=O)NCCC(NS(=O)(=O)c2ccc(C)cc2)C(=O)NO)cc1` (stereo not drawn) [Example 1, N-Hydroxy-2,4-bis-[[4-methylphenylsulfonyl]amino] butanamide], for which the Ki came out at 0.0024 µM at stromelysin, 0.048 µM on collagenase and 0.00094 µM at gelatinase.

Turning to `Cc1ccc(S(=O)(=O)NCC[C@@H](NS(=O)(=O)c2ccc(C)cc2)C(=O)NO)cc1` [Example 2, (R)-N-Hydroxy-2,4-bis-[[4-methylphenylsulfonyl]amino] butanamide], the Ki on stromelysin was 0.0032 µM; at collagenase, 0.043 µM; at gelatinase, 0.0013 µM.

Regarding `COc1ccc(S(=O)(=O)NCCC(NS(=O)(=O)c2ccc(OC)cc2)C(=O)NO)cc1` (stereo not drawn) [Example 8, N-Hydroxy-2,4-bis-[[4-methoxyphenylsulfonyl]amino] butanamide], the Ki came to 0.0012 µM on stromelysin, 0.093 µM at collagenase and 0.0007 µM on gelatinase.

On to `Cc1ccc(S(=O)(=O)NCC(NS(=O)(=O)c2ccc(C)cc2)C(=O)NO)cc1` (stereo not drawn) [Example 4, N-Hydroxy-2,3-bis-[[4-methylphenylsulfonyl]amino] propionamide], for which the Ki was determined as 0.844 µM on stromelysin, 0.449 µM on collagenase and 0.02 µM at gelatinase.

Regarding `Cc1ccc(S(=O)(=O)NCC[C@H](NS(=O)(=O)c2ccc(C)cc2)C(=O)NO)cc1` [Example 3, (S)-N-Hydroxy-2,4-bis-[[4-methylphenylsulfonyl]amino] butanamide], the Ki was determined as 0.048 µM at stromelysin, 0.84 µM on collagenase and 0.035 µM on gelatinase.

Consider `Cc1ccc(S(=O)(=O)NCCCC(NS(=O)(=O)c2ccc(C)cc2)C(=O)NO)cc1` (stereo not drawn) [Example 7, N-Hydroxy-2,5-bis-[[4-methylphenylsulfonyl]amino] valeramide], for which the Ki at stromelysin was found to be 0.107 µM; at collagenase, 0.57 µM; on gelatinase, 0.0051 µM.

For `O=C(NO)C(CCNS(=O)(=O)c1ccc(F)cc1)NS(=O)(=O)c1ccc(F)cc1` (stereo not drawn) [Example 5, N-Hydroxy-2,4-bis-[[4-fluorophenylsulfonyl]amino] butanamide], the Ki on stromelysin is 0.045 µM; at collagenase it was 0.06 µM; on gelatinase it was 0.016 µM.
